Assay results from patent publication US20150004636A1, “NEURONAL BIOSENSOR FOR DETECTION OF TOXINS” (priority 2011, published 2015).
Like-named read-outs stand apart in the source and are kept apart here.

Tests used:
Type in all cases: cell-based, chick
[1] = test system: dorsal root ganglia (DRG) neurons
Experimental: The eggs were incubated for 10 days before dissection in a dark egg incubator with motion at a dry temperature of 86-100° F. and wet temperature of 84-86° F. From the ventral side, the spines of the embryos were exposed, the kidneys were removed one at a time under higher dissecting power carefully so as not to remove the nerve chains situated just below the kidney along the ventral side of the spinal cord. The DRGs were each dissected from the area between the bottom of the ribs and the posterior end of the embryo, placed in a tissue culture dish containing F12 media. DRGs from 12 embryos were transferred with a fire-polished Louis Pasteur pipette to a sterile 15 ml tube. After the DRGs settled to the bottom of the tube, a pipette was used to carefully remove the F12 media, avoiding removal of any DRGs. Ten mLs of 5% trypsin were added to the tube with DRGs, mixed, and incubated for 30 minutes in a 37° C. water bath. Every 10 minutes of incubation the tube was removed from the water bath and tapped to mix the DRGs and allow the trypsin to digest connective tissue to separate the neurons. After incubation, trypsin was removed using a pipette. The cells were rinsed with 2 ml of Neurobasal media 2-3 times by adding media, allowing the DRGs to settle to the bottom of the tube before removing the media, and adding another 2 ml of media. After the final rinse, the volume was brought up to 1 ml and the dissociated neurons were triturated with a medium-sized, then a small-sized, fire-polished Louis Pasteur pipette until the cell solution appeared cloudy and no individual DRGs were present in the media. A small amount of the solution was transferred to a hemocytometer and the single cells were counted. The cell solution was diluted so that 10-15×10^4 cells were added to an Alconox® treated, 0.1 mg/ml collagen coated, 25 mm diameter round glass coverslip in a 35 mm dish with 2 ml of Neurobasal media. The DRGs were incubated in 5% CO2 at 37° C. for 2-3 days before experimentation. Approximately 1 mL of media was replaced with new media every other day until experiments began.
Experiments began 2-3 days after neurons were plated. A dish of neurons was washed with 1×HBSS then 1×HBSS+1 mg/ml bovine serum albumin (BSA) before the cells were bathed in 4 μM Fura-2AM in 1×HBSS+BSA for incubation for 45 min at 37° C. in 5% CO2. The cells were washed 4× with 1×HBSS and incubated for another 20-60 min in 1×HBSS. A coverslip containing the neurons was removed after the final wash and placed in an apparatus for calcium imaging.
All toxins including nicotine, boric acid, ionomycin, glutamate, and glycine were prepared in 1×HBSS according to their final concentrations (Table 3).
The coverslip containing the neurons was placed in a perfusion apparatus onto an Olympus IX70 microscope equipped with a 20× fluorescence objective, a Mercury lamp and filter sets that optimized the Fura-2 excitation ([…]) and emission wavelengths (510 nm). The cells were bathed continuously by perfusion of solutions at ˜4.7 mL/min. The cells were bathed with 1×HBSS during software setup and for resting Ca^2+ measurements before exposure to stimulating or toxic solutions. InCyt Im2™ software was used to measure the emission intensities and convert to Ca^2+ concentrations. Only designated areas of each neuron soma were chosen for measurements. Calibration curves were generated for conversion of light intensity emitted per excitation wavelength using standard Ca^2+ solutions in the free acid form of Fura-2 to convert emitted light intensity to Ca^2+ concentration. Each experiment began with 3 min wash with HBSS to establish resting intracellular Ca^2+ measurements. Depending on the toxin used, the neurons were then exposed to a flow of toxic/stimulating solution for 5-10 min. Each experiment ended with a 1 min. wash of HBSS to determine reversal or change of the stimulating/toxic solution. […]

[2] = test system: DRG neurons
[3] = test system: DRG neurons; remark: listed apart in the source
Experimental: For microscopy experiments, holes were drilled in the bottom of 35 mm tissue culture dishes with a 7/32″ drill bit and drill press. Etching was performed on 12 mm round glass coverslips that were submerged in 300 ml of boiling 18 MΩ H2O containing 7.5 g Alconox detergent for 30 minutes. The coverslips were then rinsed with 18MΩ H2O and dried in a 150 mm Petri dish in a laminar flow hood. A section of Tygon tubing (0.5 inch long, 0.5 inch inner diameter, and 0.75 inch outer diameter) was used to apply Dow Corning 732 multi-purpose sealant to the bottom of the tissue culture dishes just around the hole that was drilled previously. Forceps were used to press one round glass coverslip to the bottom of each tissue culture dish until a continuous seal was formed around the hole. The tissue culture dishes were laid in a fume hood to dry. Exposure to ultraviolet light for at least an hour or treatment with ethanol for approximately 30 seconds was used to sterilize the dishes. Type VII collagen, to promote cell adhesion to the glass coverslip, was added to each dish for coating and allowed to air dry in the laminar flow hood to maintain sterility. Once the dishes were dry, the lids were placed back on the dishes and the edges of the Petri dishes were then wrapped in Parafilm and stored in a 4° C. refrigerator before use.
Focusing on the FM® dye, the dye was thawed at room temperature and vortexed. A 30 μM FM® dye solution was made with 1×HBSS. The solution was heated to 37° C. and vortexed just before each cell staining experiment. The cells were exposed to the FM® dye solution for 5-10 min before imaging.
The media was removed from the 35 mm tissue culture dish using a micropipette. The surface was then rinsed once with 1 ml HBSS. […]
DRG neurons stained with FM® 4-64 were imaged before exposure to 100 μM ionomycin. […] Over the 10 min of imaging, the samples were moving out of focus and the focus was readjusted intermittently for more consistent images. […]

[4] = test system: DRG neurons; assay: Fluorescence spectroscopy of FM 4-64 labeled DRG neurons
Experimental: For spectroscopy experiments, DRG neurons were grown on 11×22 mm plastic coverslips that were treated with Alconox and coated with Type VII rat tail collagen, using the same methods that were mentioned previously. Cells were plated with ˜15×10^4 cells in each 35 mm tissue culture dish containing one plastic coverslip. The cells were incubated in 5% CO2 at 37° C. for 2 days before experiments began.
Before scanning the cell samples, the coverslip was mounted into a coverglass holder and was held inside a cuvette at a 45° angle from the light source and the photo detector. The coverglass holder was placed in a cuvette containing 1×HBSS to rinse the media from the cells prior to the experiments. For the spectroscopy experiments, the coverglass holder was placed in the cuvette that was filled with either 1×HBSS or stimulating solutions. The orientation of the coverglass in the cuvette was situated so that the cell surface was facing the light source and photodetector, both at 45° angles. For experiments using FM® 4-64, scan were conducted using a HORIBA Jobin Yvon FluoroLog®-3 spectrofluorometer with an excitation wavelength of 558 nm and an emission range was detected from 566 to 750 nm. The slit width for excitation and emission was 3 nm and data was collected every 0.2 sec, once for each wavelength. Fluorescence intensity was detected in counts per second (cps). The data was transferred into MS Excel and analyzed using Matlab.
In Matlab, the maximum intensity of each scan was found for the emission wavelength range of interest and the ratio of the maximum emission intensities was taken between non-labeled, non-stimulated cells and FM®-labeled cells before and after stimulation. This ratio was used to determine the difference in fluorescence, and therefore the amount of stained membranes present in the sample before and after stimulation with ionomycin.
To determine whether a change in fluorescence of FM®-labeled neurons could be measured, the cells were stained and stimulated using the same methods mentioned above. Four emission scans were performed: a control scan of the non-labeled neurons in HBSS, a scan of the FM®-labeled neurons in HBSS, a scan of the FM® labeled neurons in ionomycin 5 min after initial stimulation, and a scan of the post stimulated, FM®-labeled neurons in 1×HBSS wash. The cells were rinsed with warm 1×HBSS before each scan, and the cells were stimulated for a total of 10 min before rinsed with 1×HBSS for the fourth scan. The ratio of fluorescence intensities of non-labeled neurons to FM®-labeled neurons, FM®-labeled ionomycin-stimulated neurons, and FM®-labeled ionomycin-stimulated rinsed neurons in Table 5.

[5] = 10 min, 50 mM boric acid, 500 μM glutamate or 100 μM nicotine
[6] = FM-labeled neurons after 10 min ionomycin stimulation, rinsed in 1×HBSS
[7] = FM-labeled neurons, 5 min in ionomycin

CN1CCCC1c1cccnc1 (stereo not shown) [nicotine]
change of intracellular Ca2+ compared to resting [1]: only a few cells experiencing an increase in intracellular Ca^2+
axon morphology after stimulation [2]: swollen axons
migration of FM 4-64 dye in stained neurons [2]: no migration of FM® 4-64 throughout the cells

OB(O)O [boric acid]
change of intracellular Ca2+ compared to resting [1]: slight, but significant, decrease
mean intracellular Ca2+ concentration during stimulation [1]: 58 nM
axon morphology after stimulation [2]: swollen axons
differences in membrane structure before vs after treatment [2]: very little differences to no differences
migration of FM 4-64 dye in stained neurons [2]: no migration of FM® 4-64 throughout the cells

[Cl-].[K+] [KCl, potassium chloride]
mean intracellular Ca2+ concentration during stimulation ([1]; 50 mM KCl, n=104): 511 nM
migration of FM 4-64 dye in stained neurons ([2]; 50 mM KCl, 10 min after addition): some migration of FM® dye throughout the DRG neurons
cell morphology in phase images during stimulation ([2]; 50 mM KCl, 10 min of stimulation): some swelling in small parts of axons

CCN(CC)c1ccc(/C=C/C=C/C=C/c2cc[n+](CCC[N+](CC)(CC)CC)cc2)cc1.[Br-].[Br-] [FM® 4-64]
staining of DRG neuron membranes ([3]; 30 μM FM 4-64 in 1×HBSS): complete staining of the cell membranes around the soma and axons

N[C@@H](CCC(=O)O)C(=O)O [glutamate]
percent of cells that responded with an increase of intracellular Ca2+ ([1]; 100 μM glutamate): 21%
percent of cells without obvious increase of intracellular Ca2+ (non-responding) ([1]; 100 μM glutamate): 79%
average intracellular Ca2+ concentration, responding cells ([1]; 100 μM glutamate, n=27, resting 68.7 nM): 301 nM
average intracellular Ca2+ concentration, non-responding cells ([1]; 100 μM glutamate, n=100, resting 67 nM): 71 nM
percent of cells that responded with an increase of intracellular Ca2+ ([1]; 500 μM glutamate): 34%
percent of cells without obvious increase of intracellular Ca2+ (non-responding) ([1]; 500 μM glutamate): 66%
average intracellular Ca2+ concentration, responding cells ([1]; 500 μM glutamate, n=75, resting 82): 352 nM
average intracellular Ca2+ concentration, non-responding cells ([1]; 500 μM glutamate, n=146, resting 84 nM): 88 nM
percent of cells that responded with an increase of intracellular Ca2+ ([1]; 1 mM glutamate): 15%
percent of cells without obvious increase of intracellular Ca2+ (non-responding) ([1]; 1 mM glutamate): 85%
average intracellular Ca2+ concentration, non-responding cells ([1]; 1 mM glutamate, n=38, resting 79 nM): 87 nM
axon morphology after stimulation [2, 5]: swollen axons
migration of FM 4-64 dye in stained neurons [2, 5]: no migration of FM® 4-64 throughout the cells

C[C@H](CCC(=O)O)C[C@H](C)C[C@H](C)C(=O)/C=C(\O)[C@H](C)C[C@H](C)C/C=C/[C@@H](C)[C@@H](O)[C@@H](C)[C@@H](O)C[C@@H]1CC[C@@](C)([C@H]2CC[C@@](C)([C@@H](C)O)O2)O1 [ionomycin]
mean intracellular Ca2+ concentration during stimulation ([1]; ~100 μM ionomycin, highest time points averaged, n=228): 988 nM
change of intracellular Ca2+ compared to resting ([1]; ~100 μM ionomycin, positive control): large and irreversible
Fluorescence Intensity at 667 nm [4, 6]: 2238 cps
Fluorescence Intensity at Peak Emission Wavelength [4, 6]: 2362 cps
Peak Emission Wavelength [4, 6]: 676 nm
Fluorescence Intensity at 667 nm [4, 7]: 3303 cps
Fluorescence Intensity at Peak Emission Wavelength [4, 7]: 3719 cps
Peak Emission Wavelength [4, 7]: 684 nm
Ratio of Fluorescence Intensities at 667 nm ([4]; FM-labeled neurons, 5 min in ionomycin vs non-labeled neurons): 2.05
Ratio of Fluorescence Intensities at 667 nm ([4]; after 10 min ionomycin stimulation, rinsed in 1×HBSS vs non-labeled neurons): 1.39
cell morphology in phase images during stimulation ([3]; 100 μM ionomycin, up to 10 min): shrinkage of the cell soma
migration of FM 4-64 dye in stained neurons ([3]; 100 μM ionomycin, within the first 25 sec of stimulation): migrated from the membranes of the axons into the soma
